{
  "source": "paper PMC9298194",
  "about": "“Clinical Pharmacokinetics of Daprodustat: Results of an Absorption, Distribution, and Excretion Study With Intravenous Microtracer and Concomitant Oral Doses for Bioavailability Determination” (Clinical Pharmacology in Drug Development, 2021)",
  "key": {"[1]": {"assay": "Urine and fecal excretion of total radioactivity (mass balance)", "format": "in vivo, human", "conditions": "25 mg [14C] oral solution; for total radioactivity recovered (urinary + fecal): 96‐ to 120‐hour collection (day 5) onward", "procedure": "(§1) On day 1 of treatment period 2, after an overnight fast of at least 8 hours, each participant received 25 mg [^14C]‐GSK1278863 (≈2.31 MBq; 62.5 μCi) as an oral solution; participants continued to fast for 4 hours after dosing.[15] Blood, urine, and fecal samples were collected for a minimum of 144 hours (up to day 7) after dosing, depending on the amount of radioactivity excreted by each participant in excreta collected daily. Liquid scintillation counting (LSC) was performed on these excreta collections on an ongoing basis to assess recovery of the radioactivity dosed. Participants were discharged if ≥90% and <1% of the dose was excreted on both days 6 and 7.\nUrine samples for measurement of total radioactivity excreted in urine were collected before dosing in period 1, then over the time periods 0 to 24, 24 to 48, 48 to 72, 72 to 96, 96 to 120, and 120 to 144 hours in period 2. An aliquot of each 24‐hour urine collection was shipped at ambient temperature to Covance (Harrogate, North Yorkshire, UK) for total radioactivity measurement by LSC. […] Total fecal samples were frozen at −70°C, then shipped on cold gel packs to Covance for total radioactivity measurement by LSC (following homogenization). Aliquots of both urine and fecal homogenates were also sent to GlaxoSmithKline (GSK) for characterization and quantification of metabolites (data not reported). • The following parameters were determined from the urine and fecal radiolabeled drug‐related material (total radioactivity) data: • Absolute amount excreted and percentage excreted in urine (Ae [urine] and Fe% [urine]) within each collection period and cumulative urinary recovery and fraction excreted over the total collection period • Absolute amount excreted and percentage excreted in feces (Ae [fecal] and Fe% [fecal]) with each collection period and cumulative fecal recovery and fraction excreted over the total collection period and cumulatively over the collection period\nTotal excretion (sum of urine and fecal excretion), Ae [total], and Fe% [total] were calculated by collection interval for each participant. […]"}, "[2]": {"conditions": "39‐week study in monkeys; cited from earlier work"}, "[3]": {"assay": "Plasma daprodustat pharmacokinetics in healthy male participants (6 mg oral tablet, 50 μg IV microtracer, 25 mg oral solution)", "format": "in vivo, human", "conditions": "for AUC / tmax / Cmax / half-life: plasma daprodustat; for tmax: median (range); for Cmax: arithmetic mean (SD); for half-life: read-out: t½ (converted)", "procedure": "On day 1 of treatment period 1, after an overnight fast of at least 8 hours, each participant took a single 6 mg oral dose of daprodustat; participants continued to fast for < 3 hours when a small amount of food was administered to stimulate bile release for the Entero‐Test. After ≈1 hour, participants received 50 μg of [^14C]‐GSK1278863 (≈4.63 kBq; 125 nCi) by IV infusion over 1 hour. Blood samples were collected for 144 hours after oral dosing (until day 7). Participants were discharged on study day 7 after completion of the 144‐hour sample collection. The Entero‐Test was swallowed 3.5 hours before the oral dose of daprodustat (while in the fasted state) and removed 3 hours after the oral dose (about 1 hour after completion of the IV infusion). About 1.5 hours before string withdrawal, a food cue was used to stimulate gallbladder emptying.\nas §1\nAs per standard practice for administration of radiolabeled drug, the IV and oral dosing solutions were analyzed for daprodustat via assessment of the radioactivity and through application of the predetermined specific activity. Whole blood samples were collected for measurement of each of the following: blood total radioactivity in period 2 and plasma total radioactivity in period 1, plasma concentrations of daprodustat, and the 6 predominant circulating metabolites in periods 1 and 2. Blood samples were collected at 1, 3, and 6 hours after dosing for blood assessments. Blood samples were collected for plasma assessments before dosing and at 0.50, 1, 1.25, 1.5, 2, 3, 4, 6, 8, 10, 12, 24, 36, 48, 72, 96, 120, and 144 hours after dosing.\nDaprodustat and [^14C]‐GSK1278863 plasma concentrations were measured in treatment period 1: 6 mg daprodustat oral tablet, followed by a 1‐hour IV infusion of 50 μg [^14C]‐GSK1278863, started 1 hour after tablet administration, and in treatment period 2: 25 mg [^14C]‐GSK1278863 oral solution.\nPlasma samples from periods 1 and 2 were analyzed for daprodustat and its 6 metabolites by PPD Laboratories using a validated analytical method based on protein precipitation, followed by high‐performance liquid chromatography with tandem mass spectrometric detection analysis, as described previously.[7], [8] Specifically, the lower limit of quantification (LLQ) for this study was 0.100 ng/mL using a 100 μL aliquot of ethylenediaminetetraacetic acid plasma for all 7 analytes. The higher limit of quantification was 100 ng/mL for all 7 analytes. The data accuracy (% bias range: −2.21 to −0.400 to 0.560‐5.85) and precision (% coefficient of variation of 3.99‐7.13) met acceptable limits as recommended by the US Food and Drug Administration in their bioanalytical method validation guidelines.[17] Final PK concentration data for period 1 after 1‐hour samples for daprodustat were further corrected to account for radiolabeled ^14C dose.\nPlasma samples collected from period 1 were analyzed for [^14C]‐GSK1278863 by GSK using a validated analytical method, based on protein precipitation, followed by liquid chromatography–AMS analysis. The LLQ was 1.80 pg/mL, using a 600 μL aliquot of human plasma with a higher limit of quantification of 358.92 pg/mL. Accuracy for the 5 validation levels were between −9.2% and 2.2%, and precision was between 2.5% and 10.8%. […]"}, "[4]": {"conditions": "6 mg tablet vs 50 μg IV dose (120-fold dose difference), period 1"}, "[5]": {"conditions": "25 mg oral solution vs 6 mg oral tablet (4.17-fold dose difference)"}},
  "note": "Like-named read-outs stand apart in the source and are kept apart here.",
  "data": [
    {"smiles": "O=C(O)CNC(=O)C1C(=O)N(C2CCCCC2)C(=O)N(C2CCCCC2)C1=O", "note": "[Daprodustat]", "values": [
      {"measurement": "unchanged daprodustat excreted in urine", "setting": "[1]", "result": "≈ 0.5 % of the administered radioactivity"},
      {"measurement": "total radioactivity recovered (urinary + fecal)", "setting": "[1]", "result": "≈ 95 % of the administered radioact"},
      {"measurement": "total radioactivity recovered (urinary + fecal)", "setting": "[1]; listed as [^14C]‐GSK1278863", "result": "≈ 95 % of the administered radioactivity"},
      {"measurement": "doses at which gastric erosions were observed", "setting": "[2]", "result": "≥ 10", "unit": "mg/kg/day"},
      {"measurement": "no observed adverse effect level", "setting": "[2]", "result": 3, "unit": "mg/kg/day"},
      {"measurement": "absolute bioavailability (oral F)", "setting": "[3]; 6 mg oral tablet, based on AUC0‐inf", "result": 66.1, "unit": "%"},
      {"measurement": "fold difference in mean AUC0‐t, oral tablet vs IV", "setting": "[3]; [4]", "result": 75.0, "unit": "fold"},
      {"measurement": "fold difference in mean Cmax, oral tablet vs IV", "setting": "[3]; [4]", "result": 47.2, "unit": "fold"},
      {"measurement": "fold increase in total exposure (AUC0‐inf), solution vs tablet", "setting": "[3]; 25 mg oral solution vs 6 mg oral tablet", "result": 4.84, "unit": "fold"},
      {"measurement": "fold increase in mean AUC0‐t, solution vs tablet", "setting": "[3]; [5]", "result": 4.84, "unit": "fold"},
      {"measurement": "fold increase in mean Cmax, solution vs tablet", "setting": "[3]; [5]", "result": 5.86, "unit": "fold"},
      {"measurement": "Oral F (0‐inf)", "setting": "[3]; absolute bioavailability, 6 mg oral tablet vs IV microtracer, fraction, mean (SD), n = 3", "result": "0.661 (0.077)"},
      {"measurement": "clearance", "setting": "[3]; male, human, blood, 50 μg, translated from plasma CL after IV administration, read-out: blood CL (converted)", "result": "~250", "unit": "mL/min"},
      {"measurement": "AUC", "setting": "[3]; male, human, plasma, iv, 50 μg, [14C] 50 μg IV infusion, mean (SD), n = 3, read-out: AUC0‐inf", "result": 2.71, "unit": "ng·h/mL"},
      {"measurement": "AUC", "setting": "[3]; male, human, plasma, iv, 50 μg, [14C] 50 μg IV infusion, mean (SD), read-out: AUC0‐t", "result": 2.68, "unit": "ng·h/mL"},
      {"measurement": "tmax", "setting": "[3]; male, human, plasma, iv, 50 μg, [14C] 50 μg IV infusion, read-out: tmax", "result": 1, "unit": "h"},
      {"measurement": "bioavailability", "setting": "[3]; male, human, plasma, po, 6 mg, 6 mg oral tablet, based on AUC0‐inf, read-out: absolute bioavailability (oral F)", "result": "~66", "unit": "%"},
      {"measurement": "AUC", "setting": "[3]; male, human, plasma, po, 6 mg, 6 mg oral tablet, mean (SD), read-out: AUC0‐inf", "result": 202, "unit": "ng·h/mL"},
      {"measurement": "AUC", "setting": "[3]; male, human, plasma, po, 6 mg, 6 mg oral tablet, mean (SD), read-out: AUC0‐t", "result": 201, "unit": "ng·h/mL"},
      {"measurement": "tmax", "setting": "[3]; male, human, plasma, po, 6 mg, 6 mg oral tablet, read-out: tmax", "result": "~2", "unit": "h"},
      {"measurement": "AUC", "setting": "[3]; male, human, plasma, po, 25 mg, [14C] 25 mg oral solution, mean (SD), read-out: AUC0‐inf", "result": 974, "unit": "ng·h/mL"},
      {"measurement": "AUC", "setting": "[3]; male, human, plasma, po, 25 mg, [14C] 25 mg oral solution, mean (SD), read-out: AUC0‐t", "result": 972, "unit": "ng·h/mL"},
      {"measurement": "tmax", "setting": "[3]; male, human, plasma, po, 25 mg, [14C] 25 mg oral solution, read-out: tmax", "result": "~0.5", "unit": "h"},
      {"measurement": "Vd", "setting": "[3]; male, human, plasma, [14C] 50 μg IV infusion, mean (SD), n = 3, read-out: Vss", "result": 14.6, "unit": "L"},
      {"measurement": "clearance", "setting": "[3]; male, human, plasma clearance, [14C] 50 μg IV infusion, mean (SD), n = 3, read-out: CL (converted)", "result": 322, "unit": "mL/min"},
      {"measurement": "Cmax", "setting": "[3]; male, human, 6 mg oral tablet", "result": 97.3, "unit": "ng/mL"},
      {"measurement": "half-life", "setting": "[3]; male, human, 6 mg oral tablet, mean (SD)", "result": 1.92, "unit": "h"},
      {"measurement": "Cmax", "setting": "[3]; male, human, [14C] 50 μg IV infusion over 1 h", "result": 2.06, "unit": "ng/mL"},
      {"measurement": "half-life", "setting": "[3]; male, human, [14C] 50 μg IV infusion, mean (SD), n = 3", "result": 2.07, "unit": "h"},
      {"measurement": "Cmax", "setting": "[3]; male, human, [14C] 25 mg oral solution", "result": 570, "unit": "ng/mL"},
      {"measurement": "half-life", "setting": "[3]; male, human, [14C] 25 mg oral solution, mean (SD)", "result": 2.6, "unit": "h"},
      {"measurement": "tmax", "setting": "[3]; 6 mg oral tablet", "result": "2.12 (1.42−4.00) h"},
      {"measurement": "tmax", "setting": "[3]; [14C] 50 μg IV infusion", "result": "0.983 (0.983−0.983) h"},
      {"measurement": "tmax", "setting": "[3]; [14C] 25 mg oral solution", "result": "0.500 (0.500−0.517) h"}
    ]}
  ]
}
